The source of these data is patent publication US20240016876A1, “COMPOSITION FOR HANGOVER RELIEF COMPRISING NONI FRUIT EXTRACT OR FRACTION THEREOF AND USE THEREOF” (Cosmax NBT, Inc., priority 2020, published 2024).

In this experiment the test system is alcohol dehydrogenase (ADH). The experiment can be described thus: ADH activity enhancing efficacy (in vitro, Bergmeyer method). Particulars: samples treated at 10 μM; control group (CTL) not treated = 100%; FIGS. 1 and 2. It counts as biochemical. As for the experimental part:
The ADH activity was measured by referring to [Bergmeyer, H. U. 1974. Methods of enzymatic analysis. Academic Press, New York. pp. 28], and measurements were made according to the method presented herein. All samples were treated at 10 μM, and the ADH activity of each sample was expressed as relative activity (%) with respect to the control group, based on 100% of the activity of the control group (CTL) which was not treated with the sample.
As for `CC(=O)OCC1=C[C@H](O)[C@@H]2C(C(=O)O)=CO[C@@H](O[C@@H]3O[C@H](CO)[C@@H](O)[C@H](O)[C@H]3O)[C@H]12` [asperulosidic acid], the “ADH activity compared to the control group” value was “did not show an increase”.

`O=C(O)c1ccc(O)cc1` [4-hydroxybenzoic acid]: the “ADH activity compared to the control group” value is “did not show an increase”.

In the case of `COc1ccc(C(=O)O)cc1` [p-anisic acid], the “ADH activity compared to the control group” value is listed as “did not show an increase”.

On to `O=C(O)C1=CO[C@@H](O[C@@H]2O[C@H](CO)[C@@H](O)[C@H](O)[C@H]2O)[C@@H]2C(CO)=C[C@H](O)[C@H]12` [deacetylasperulosidic acid], for which the “ADH activity compared to the control group” value is “did not show an increase”.

As to `O=C(O)/C=C/c1ccc(O)c(O)c1` [caffeic acid], the “ADH activity compared to the control group” value is reported as “did not show an increase”.

Regarding `COc1cc2ccc(=O)oc2cc1O` [scopoletin], the “ADH activity compared to the control group” value is given as “did not show an increase”.

For `CC(=O)OCC1=C[C@@H]2OC(=O)C3=CO[C@@H](O[C@@H]4O[C@H](CO)[C@@H](O)[C@H](O)[C@H]4O)[C@H]1[C@@H]32` [asperuloside], the “ADH activity compared to the control group” value is on record as “did not show an increase”.

With `O=C(O)c1cc(O)c(O)c(O)c1` [gallic acid], the “ADH activity compared to the control group” value is reported as “did not show an increase”.

Turning to `O=C(/C=C/c1ccc(O)c(O)c1)O[C@@H]1C[C@](O)(C(=O)O)C[C@@H](O)[C@H]1O` [chlorogenic acid], the “ADH activity compared to the control group” value is “did not show an increase”.
